In patent US20230287138A1, “PROTEIN-DRUG CONJUGATES COMPRISING CAMPTOTHECIN ANALOGS AND METHODS OF USE THEREOF” (Regneron Pharmaceuticals, Inc., priority 2022, published 2023):
Like-named read-outs stand apart in the source and are kept apart here.

Test system: HCT-15
Assay: HCT-15 data of payloads and linker-payloads (EC50, with or without verapamil)
Type: cell-based
[1] = Homo sapiens, payload, HCT-15 cells, no verapamil, read-out: HCT-15 EC50
[2] = payload, HCT-15 cells plus verapamil, read-out: HCT-15 + verapamil EC50
[3] = Homo sapiens, linker-payload, HCT-15 cells, read-out: HCT-15 EC50

| Compound | EC50 [1] [µM] | EC50 [2] [µM] | EC50 [3] [µM] |
| --- | --- | --- | --- |
| CCc1c2c(nc3ccc(OC)cc13)-c1cc([C@@](O)(CC)C(=O)NCCN)c(COC(C)=O)c(=O)n1C2 [P18, {7-[(1 S)-1-[(2-Aminoethyl)carbamoyl]-1-hydroxypropyl]-12-ethyl-2-methoxy-9-oxo-9H,11H-indolizino[1,2-b]quinolin-8-yl}methyl acetate] | 0.0325 | 0.0328 | – |
| CC[C@@]1(O)C(=O)OCc2c1cc1n(c2=O)Cc2c-1nc1cc(F)c(C)c3c1c2[C@@H](NC(=O)[C@@H](N)CCC(=O)O)CC3 [P3, (4S)-4-amino-4-{[(10S,23S)-10-ethyl-18-fluoro-10-hydroxy-19-methyl-5,9-dioxo-8-oxa-4,15-diazahexacyclo[[14.7.1.0^2,^14.0^4,^13.0^6,^11.0^20,^24]]tetracosa-1,6(11),12,14,16,18,20(24)-heptaen-23-yl]carbamoyl}butanoic acid] | 0.61 | 0.596 | – |
| CC[C@@]1(O)C(=O)OCc2c1cc1n(c2=O)Cc2c-1nc1cc(F)c(C)c3c1c2[C@@H](NC(=O)OCc1ccc(O[C@@H]2O[C@H](CO)[C@@H](O)[C@H](O)[C@H]2O)c(C(=O)NCCOCCOCCNC(=O)CCOCC(COCCC(=O)NCCOCCOCCNC(=O)c2cc(COC(=O)N[C@H]4CCc5c(C)c(F)cc6nc7c(c4c56)Cn4c-7cc5c(c4=O)COC(=O)[C@]5(O)CC)ccc2O[C@@H]2O[C@H](CO)[C@@H](O)[C@H](O)[C@H]2O)NC(=O)CCOCCOCCNC(=O)COC2C#CCCCCC2)c1)CC3 (some centres unmarked) [LP16] | – | – | 0.14 |
| CCc1c2c(nc3ccc(O)cc13)-c1cc3c(c(=O)n1C2)COC(=O)[C@]3(O)CC [P16, 7-ethyl-10-hydroxycamptothecin, reference compound] | 0.00611 | 0.00477 | – |
| CC[C@@]1(O)C(=O)OCc2c1cc1n(c2=O)Cc2c-1nc1cc(F)c(C)c3c1c2[C@@H](NC(=O)[C@H](Cc1ccccc1)NC(=O)OCc1ccc(NC(=O)[C@H](CCCNC(N)=O)NC(=O)[C@@H](NC(=O)CCOCCOCCOCCOCCNC(=O)COC2C#CCCCCC2)C(C)C)cc1)CC3 (stereo partly drawn) [LP10, {4-[(2S)-5-(carbamoylamino)-2-[(2S)-2-{1-[2-(cyclooct-2-yn-1-yloxy)acetamido]-3,6,9,12-tetraoxapentadecan-15-amido}-3-methylbutanamido]pentanamido]phenyl}methyl N-[(1 S)-1-{[(10S,23S)-10-ethyl-18-fluoro-10-hydroxy-19-methyl-5,9-dioxo-8-oxa-4,15-diazahexacyclo[14.7.1.0^2,^14.0^4,^13.0^6,^11.0^20,^24]tetracosa-1,6(11),12,14,16,18,20(24)-heptaen-23-yl]carbamoyl}-2-phenylethyl]carbamate] | – | – | 0.852 |
| CCc1c2c(nc3ccc(OC)cc13)-c1cc3c(c(=O)n1C2)COC(=O)[C@]3(O)CC [P17, (19S)-10,19-Diethyl-19-hydroxy-7-methoxy-17-oxa-3,13-diazapentacyclo[11.8.0.0^2,^11.0^4,^9.0^15,^20]henicosa-1(21),2,4,6,8,10,15(20)-heptaene-14,18-dione] | 0.00159 | 0.00144 | – |
| CC[C@@]1(O)C(=O)OCc2c1cc1n(c2=O)Cc2c-1nc1cc(F)c(C)c3c1c2[C@@H](NCCS(C)(=O)=O)CC3 [P7, (10S,23S)-10-ethyl-18-fluoro-10-hydroxy-23-[(2-methanesulfonylethyl)amino]-19-methyl-8-oxa-4,15-diazahexacyclo[[14.7.1.0^2,^14.0^4,^13.0^6,^11.0^20,^24]]tetracosa-1,6(11),12,14,16,18,20(24)-heptaene-5,9-dione] | 0.00558 | 0.00169 | – |
| CC[C@@]1(O)C(=O)OCc2c1cc1n(c2=O)Cc2c-1nc1cc(F)c(C)c3c1c2[C@@H](NC(=O)[C@@H](N)Cc1ccccc1)CC3 [P5, (2S)-2-amino-N-[(10S,23S)-10-ethyl-18-fluoro-10-hydroxy-19-methyl-5,9-dioxo-8-oxa-4,15-diazahexacyclo[[14.7.1.0^2,^14.0^4,^13.0^6,^11.0^20,^24]]tetracosa-1,6(11),12,14,16,18,20(24)-heptaen-23-yl]-3-phenylpropanamide] | 0.0483 | 0.0042 | – |
